Test results from US7482328B2, “Antimicrobial polypeptide and utilization thereof” (Toagosei Co., Ltd., priority 2002, dated 2009).
Residues, ends and D or L forms follow the SMILES beside them. No end group written: not given here.

Experiments:
Format in all cases: cell-based
E. coli = test system: E. coli
Description: (§1) Regarding the antimicrobial polypeptide of the present invention (samples 1 to 33) and the polypeptides of comparative samples 1 to 3, the antimicrobial activities (minimum inhibitory concentration: MIC) with respect to gram-negative bacteria (E. coli) and gram-positive bacteria (S. aureus) were determined by a liquid medium dilution technique using a 96-well microplate.
(§2) More specifically, liquid bouillon media (“NUTRIENT BROTH Dehydraged” manufactured by DIFCO) in a polypeptide concentration of 500, 250, 125, 62.5, 31.3, 15.6, 7.8, 3.9, 1.9, 1.0 and 0.5 μM were prepared, and filled in a 96-well microplate. On the other hand, bacteria suspension (about 2×10^6 cells/mL) that had been stationary cultured at 37° C. for 18 hours with LB Broth, Lennox (manufactured by DIFCO) were inoculated to each well of the 96-well microplate in an equal amount to that of the pharmaceutical solution (the above-described polypeptide-containing bouillon medium). After inoculation, culture was started in an incubator at 37° C., and it was examined based on the turbidity after 24 hours and 48 hours whether or not bacteria are present. The minimum of the polypeptide concentrations in which no increase in the turbidity caused by bacteria at the time of measurement was observed was defined as MIC in this example.
(§3) The unit of MIC in Table 2 is μM. […]

S. aureus = test system: S. aureus
Description: as §1, §2, §3

[1] = test system: gram-negative bacteria (E. coli) and gram-positive bacteria (S. aureus); test: antimicrobial test of Example 2, results summed up in words; conditions: summary of Table 2, E. coli and S. aureus
Description: as §1, §2

Row | Compound | antimicrobial activity (MIC) E. coli after 24h (E. coli) [µM] | antimicrobial activity (MIC) E. coli after 48h (E. coli) [µM] | antimicrobial activity (MIC) S. aureus after 24h (S. aureus) [µM] | antimicrobial activity (MIC) S. aureus after 48h (S. aureus) [µM] | antimicrobial activities (in words) [1]
1 | N=C(N)NCCC[C@H](NC(=O)[C@H](CCCNC(=N)N)NC(=O)[C@H](CCCCN)NC(=O)[C@@H](N)CCCNC(=N)N)C(=O)O [comparative sample 1, RKRR, reference compound] (H-RKRR-OH; N-terminus and C-terminus assumed) | >500 | >500 | >500 | >500 | 
2 | CC(C)[C@H](NC(=O)[C@H](CCCCN)NC(=O)[C@H](CCCNC(=N)N)NC(=O)[C@H](CCCCN)NC(=O)[C@H](CCCCN)NC(=O)[C@H](CCCCN)NC(=O)[C@@H]1CCCN1)C(=O)O [sample 1, PKKKRKV] | 62.5 | >500 | 62.5 | 125.0 | 
3 | N=C(N)NCCC[C@H](NC(=O)[C@H](CCCNC(=N)N)NC(=O)[C@H](CCCNC(=N)N)NC(=O)[C@H](CCC(N)=O)NC(=O)[C@H](CCCNC(=N)N)NC(=O)[C@H](CCCNC(=N)N)NC(=O)[C@H](CCCCN)NC(=O)[C@H](CCCCN)NC(=O)[C@@H](N)CCCNC(=N)N)C(=O)O [sample 5, RKKRRQRRR] |  |  |  |  | particularly high antimicrobial activities
4 | LALKLAGLDI [compound 3, LALKLAGLDI, reference compound] | >500 | >500 | >500 | >500 | 
5 | LALKLAGLDIRKKKRKV [sample 15, LALKLAGLDIRKKKRKV] | 3.9 | 3.9 | 1.9 | 3.9 | high antimicrobial activities
6 | LKRKLQR [sample 27, LKRKLQR] | 500.0 | >500 | 125.0 | 125.0 | 
7 | LKRKLQRLKRKLQR [sample 30, LKRKLQRLKRKLQR] | 3.9 | 3.9 | 3.9 | 3.9 | 
8 | LPPLERLTL [comparative sample 2, LPPLERLTL, reference compound] | >500 | >500 | >500 | >500 | 
9 | LPPLERLTLPKKKRKV [sample 9, LPPLERLTLPKKKRKV] | 31.3 | 31.3 | 3.9 | 3.9 | 
10 | LPPLERLTLRKKKRKV [sample 13, LPPLERLTLRKKKRKV] | 15.6 | 15.6 | 3.9 | 3.9 | 
11 | MRKKKRKVRKKKRKV [sample 33, MRKKKRKVRKKKRKV] | 3.9 | 3.9 | 1.9 | 1.9 | 
12 | PKKKRKVALGKLALGKL [sample 31, PKKKRKVALGKLALGKL] | 7.8 | 7.8 | 3.9 | 7.8 | 
13 | PKKKRKVLPPLERLTL [sample 8, PKKKRKVLPPLERLTL] | 31.3 | 31.3 | 3.9 | 3.9 | 
14 | PKKKRKVLPPLERLTLPKKKRKV [sample 11] | 3.9 | 3.9 | 1.9 | 1.9 | 
15 | PKKKRKVPPRKKRTVV [sample 19, PKKKRKVPPRKKRTVV] | 3.9 | 3.9 | 7.8 | 7.8 | 
16 | PKKKRRV [sample 26, PKKKRRV] | 62.5 | 500.0 | 125.0 | 125.0 | 
17 | PPRKKRTVV [sample 4, PPRKKRTVV] | 250.0 | >500 | 125.0 | 125.0 | 
18 | PRRRK [sample 6, PRRRK] | >500 | >500 | 250.0 | 500.0 | 
19 | PRRRK-NH2 [sample 23, PRRRK] | 31.3 | 31.3 | 7.8 | 15.6 | 
20 | PRRRKPRRRK [sample 18, PRRRKPRRRK] | 3.9 | 3.9 | 7.8 | 7.8 | 
21 | RIRKKLR [sample 3, RIRKKLR] | 62.5 | 62.5 | 62.5 | 62.5 | 
22 | RKKKRKV-NH2 [sample 24, RKKKRKV-CONH2] | 3.9 | 15.6 | 1.0 | 1.0 | higher antimicrobial activities
23 | RKKKRKV-OH [sample 7, RKKKRKV] | 62.5 | 500.0 | 15.6 | 31.3 | 
24 | RKKKRKVLPPLERLTL [sample 12, RKKKRKVLPPLERLTL] | 15.6 | 15.6 | 3.9 | 3.9 | 
25 | RKKKRKVRKKKRKV-NH2 [sample 25, RKKKRKVRKKKRKV-CONH2] | 3.9 | 3.9 | 1.9 | 1.9 | 
26 | RKKKRKVRKKKRKVRKKKRKV [sample 21] | 1.9 | 1.9 | 0.5 | 0.5 | 
27 | RKKKRKVRKKKRKVRKKKRKVRKKKRKV [sample 22] | 1.9 | 1.9 | 1.0 | 1.0 | 
28 | RQARRNRRRRWR [sample 2, RQARRNRRRRWR] |  |  |  |  | particularly high antimicrobial activities
29 | RQARRNRRRRWRLPPLERLTLD [sample 10] |  |  |  |  | high antimicrobial activities
